Laboratory results: PMC3262391 (Clinical pharmacology : advances and applications, 2011)
Read-outs that look alike come from different tables or passages of the source. Values belong to the molecule of their own block, whether it stands above or below them.

Legend:
[1] = Simvastatin study: two-way pharmacokinetic interaction, plasma pharmacokinetics; details: for decrease of Cmax by saxagliptin / increase of AUCτ by saxagliptin: saxagliptin 10 mg + simvastatin 40 mg relative to simvastatin alone
[2] = format: in vivo, healthy subjects; details: for t½: mean (SD)
[3] = Diltiazem extended-release study: adverse events; format: in vivo, healthy subjects; details: for first-degree atrioventricular block, subjects: by treatment: diltiazem extended-release 360 mg alone, saxagliptin 10 mg + diltiazem extended-release 360 mg, saxagliptin 10 mg alone
[4] = Ketoconazole study: two-way pharmacokinetic interaction, plasma pharmacokinetics; format: in vivo, healthy subjects; details: for t½: mean (SD)
[5] = Ketoconazole study: adverse events; format: in vivo, healthy subjects
CYP3A4 [6] = details: in vitro studies; cited from earlier work
[7] = Simvastatin study: adverse events; format: in vivo, healthy subjects
CYP2D6 = details: in vitro studies; cited from earlier work
CYP2C9 [8] = details: in vitro studies; cited from earlier work
CYP2C9 [9] = details: in vitro studies; cited from earlier work; remark: listed apart in the source
CYP3A4 [10] = details: in vitro studies; cited from earlier work; remark: listed apart in the source
CYP2C19 = details: in vitro studies; cited from earlier work
P-glycoprotein = details: in vitro data; no reference given; cited from earlier work
[11] = excreted in urine; cited from earlier work
CYP2A6 = details: in vitro studies; cited from earlier work
CYP2E1 = details: in vitro studies; cited from earlier work
CYP2B6 [12] = details: in vitro studies; cited from earlier work
CYP1A2 [13] = details: in vitro studies; cited from earlier work
DPP-4 = details: cited from earlier work
CYP2B6 [14] = details: in vitro studies; cited from earlier work; remark: listed apart in the source
CYP1A2 [15] = details: in vitro studies; cited from earlier work; remark: listed apart in the source
[16] = saxagliptin 100 mg + ketoconazole versus ketoconazole alone
[17] = saxagliptin 10 mg + simvastatin 40 mg relative to saxagliptin alone
[18] = compared with saxagliptin alone
[19] = compared with saxagliptin 10 mg alone
[20] = saxagliptin 100 mg + ketoconazole 200 mg every 12 hours (day 9), geometric mean (CV%), n = 15
[21] = saxagliptin 100 mg administered alone (day 1), geometric mean (CV%), n = 15
[22] = saxagliptin 10 mg + diltiazem extended-release 360 mg (day 10), geometric mean (CV%), n = 12
[23] = saxagliptin 10 mg administered alone (day 1), geometric mean (CV%), n = 12

Structure (SMILES): N#C[C@@H]1C[C@@H]2C[C@@H]2N1C(=O)[C@@H](N)C12CC3CC(CC(O)(C3)C1)C2 [Saxagliptin, saxagliptin, reference compound]
AUC ([1]; human, in vivo, 10 mg): 153 ng·h/mL
Cmax ([1]; human, in vivo, 10 mg): 44 ng/mL
Tmax ([1]; human, in vivo, 10 mg): 1 h
increase of AUCτ by simvastatin [1, 17]: 12%
induction of CYP3A4 (CYP3A4 [6]): do not induce
increase of AUC0-t by ketoconazole [4, 18]: 148%
increase of AUC∞ by ketoconazole [4, 18]: 145%
increase of Cmax by ketoconazole [4, 18]: 62%
AUC0-t ([4]; human, plasma, 100 mg): 1920 ng·h/mL
AUC(0-inf) ([4]; human, plasma, 100 mg): 1970 ng·h/mL
Cmax ([4]; human, plasma, 100 mg): 546 ng/mL
Tmax ([4]; human, plasma, 100 mg): 1 h
half-life ([4]; human, plasma, 100 mg): 2.37 h
increase of mean t½ by ketoconazole ([4]; versus saxagliptin alone): 1.1 h
serious adverse events or deaths ([7]; after coadministration of saxagliptin and simvastatin): no serious adverse events or deaths
inhibition of CYP2D6 (CYP2D6): neither saxagliptin nor 5-hydroxy saxagliptin inhibits
increase of AUC0-t by diltiazem extended-release [2, 19]: 113%
increase of AUC∞ by diltiazem extended-release [2, 19]: 109%
increase of Cmax by diltiazem extended-release [2, 19]: 63%
AUC0-t ([2]; human, plasma, oral, 10 mg): 152 ng·h/mL
AUC(0-inf) ([2]; human, plasma, oral, 10 mg): 158 ng·h/mL
Cmax ([2]; human, plasma, oral, 10 mg): 53 ng/mL
Tmax ([2]; human, plasma, oral, 10 mg): 0.5 h
half-life ([2]; human, plasma, oral, 10 mg): 2.38 h
increase of mean t½ by diltiazem extended-release ([2]; versus saxagliptin alone): 0.92 h
inhibition of CYP2C9 (CYP2C9 [8]): neither saxagliptin nor 5-hydroxy saxagliptin inhibits
induction of CYP2C9 (CYP2C9 [9]): do not induce
inhibition of CYP3A4 (CYP3A4 [10]): neither saxagliptin nor 5-hydroxy saxagliptin inhibits
inhibition of CYP2C19 (CYP2C19): neither saxagliptin nor 5-hydroxy saxagliptin inhibits
substrate for the efflux transporter P-glycoprotein (P-glycoprotein): weak substrate
serious adverse events or deaths ([3]; after coadministration of saxagliptin and diltiazem extended-release): no serious adverse events or deaths
first-degree atrioventricular block, subjects [3]: in no subjects
renal clearance [11]: approximately 230 mL/min
serious adverse events or deaths ([5]; after coadministration of saxagliptin and ketoconazole): no serious adverse events or deaths

Structure (SMILES): CCC(C)(C)C(=O)O[C@H]1C[C@@H](C)C=C2C=C[C@H](C)[C@H](CC[C@@H]3C[C@@H](O)CC(=O)O3)[C@H]21 [Simvastatin, simvastatin, reference compound]
decrease of Cmax by saxagliptin [1]: 12%
increase of AUCτ by saxagliptin [1]: 4%
subjects discontinued due to mild upper respiratory tract infection ([7]; simvastatin 40-mg group, diagnosed on day 5, deemed possibly related to study drug): One subject

Structure (SMILES): N#C[C@@H]1C[C@@H]2C[C@@H]2N1C(=O)[C@@H](N)C12CC3CC(O)(CC(O)(C3)C1)C2 [5-Hydroxy saxagliptin, 5-hydroxy saxagliptin]
Cmax ([1]; plasma, SAXA + SIMVA, saxagliptin 10 mg + simvastatin 40 mg (day 12), geometric mean (CV%), n = 23): 103 (29) ng/mL
Cmax ([1]; plasma, SAXA, saxagliptin 10 mg administered alone (day 4), geometric mean (CV%), n = 23): 96 (33) ng/mL
AUCτ ([1]; plasma, saxagliptin 10 mg + simvastatin 40 mg (day 12), geometric mean (CV%), n = 23): 538 (24) ng · h/mL
AUCτ ([1]; plasma, saxagliptin 10 mg administered alone (day 4), geometric mean (CV%), n = 23): 529 (26) ng · h/mL
Tmax ([1]; saxagliptin 10 mg + simvastatin 40 mg (day 12), median (minimum, maximum)): 1.50 (1.00, 2.00) h
increase of AUCτ by simvastatin [1, 17]: 2%
increase of Cmax by simvastatin [1, 17]: 8%
Tmax ([1]; saxagliptin 10 mg administered alone (day 4), median (minimum, maximum)): 1.50 (1.00, 3.00) h
induction of CYP3A4 (CYP3A4 [6]): do not induce
decrease of AUC0-t by ketoconazole [4, 18]: 91%
decrease of AUC∞ by ketoconazole [4, 18]: 88%
decrease of Cmax by ketoconazole [4, 18]: 95%
Cmax ([4]; plasma, SAXA + KETO, saxagliptin 100 mg + ketoconazole 200 mg every 12 hours (day 9), geometric mean (CV%), n = 15): 53 (49) ng/mL
Cmax ([4]; plasma, SAXA, saxagliptin 100 mg administered alone (day 1), geometric mean (CV%), n = 15): 999 (24) ng/mL
AUC0-t [4, 20]: 473 (59) ng · h/mL
AUC∞ [4, 20]: 627 (43) ng · h/mL
t½ ([4]; saxagliptin 100 mg + ketoconazole 200 mg every 12 hours (day 9)): 6.33 (2.49) h
Tmax ([4]; saxagliptin 100 mg + ketoconazole 200 mg every 12 hours (day 9), median (minimum, maximum)): 2.00 (0.75, 4.00) h
AUC0-t [4, 21]: 5294 (19) ng · h/mL
AUC∞ [4, 21]: 5381 (19) ng · h/mL
t½ ([4]; saxagliptin 100 mg administered alone (day 1)): 3.68 (0.53) h
Tmax ([4]; saxagliptin 100 mg administered alone (day 1), median (minimum, maximum)): 1.50 (1.00, 2.00) h
inhibition of CYP2A6 (CYP2A6): neither saxagliptin nor 5-hydroxy saxagliptin inhibits
inhibition of CYP2E1 (CYP2E1): neither saxagliptin nor 5-hydroxy saxagliptin inhibits
induction of CYP2B6 (CYP2B6 [12]): do not induce
inhibition of CYP2D6 (CYP2D6): neither saxagliptin nor 5-hydroxy saxagliptin inhibits
decrease of AUC0-t by diltiazem extended-release [2, 19]: 36%
decrease of AUC∞ by diltiazem extended-release [2, 19]: 34%
decrease of Cmax by diltiazem extended-release [2, 19]: 43%
Cmax ([2]; plasma, SAXA + DILT XR, saxagliptin 10 mg + diltiazem extended-release 360 mg (day 10), geometric mean (CV%), n = 12): 63 (26) ng/mL
Cmax ([2]; plasma, SAXA, saxagliptin 10 mg administered alone (day 1), geometric mean (CV%), n = 12): 111 (20) ng/mL
AUC0-t [2, 22]: 338 (24) ng · h/mL
AUC∞ [2, 22]: 353 (23) ng · h/mL
t½ ([2]; saxagliptin 10 mg + diltiazem extended-release 360 mg (day 10)): 3.30 (0.53) h
Tmax ([2]; saxagliptin 10 mg + diltiazem extended-release 360 mg (day 10), median (minimum, maximum)): 1.50 (1.00, 2.50) h
AUC0-t [2, 23]: 526 (25) ng · h/mL
AUC∞ [2, 23]: 538 (25) ng · h/mL
t½ ([2]; saxagliptin 10 mg administered alone (day 1)): 3.04 (0.38) h
Tmax ([2]; saxagliptin 10 mg administered alone (day 1), median (minimum, maximum)): 1.50 (1.00, 2.00) h
inhibition of CYP1A2 (CYP1A2 [13]): neither saxagliptin nor 5-hydroxy saxagliptin inhibits
inhibition of CYP2C9 (CYP2C9 [8]): neither saxagliptin nor 5-hydroxy saxagliptin inhibits
induction of CYP2C9 (CYP2C9 [9]): do not induce
inhibition of CYP3A4 (CYP3A4 [10]): neither saxagliptin nor 5-hydroxy saxagliptin inhibits
inhibition of CYP2C19 (CYP2C19): neither saxagliptin nor 5-hydroxy saxagliptin inhibits
DPP-4 inhibitive potency relative to the parent saxagliptin (DPP-4): one-half
inhibition of CYP2B6 (CYP2B6 [14]): neither saxagliptin nor 5-hydroxy saxagliptin inhibits
renal clearance [11]: ~120 mL/min
induction of CYP1A2 (CYP1A2 [15]): do not induce

The next lines start with results.

AUC ([1]; human, in vivo, 40 mg): 17.9 ng·h/mL
decrease of Cmax by saxagliptin [1]: unchanged
increase of AUCτ by saxagliptin [1]: 16%
Tmax ([1]; simvastatin 40 mg administered alone (day 8), median (minimum, maximum)): 4.00 (2.00, 8.00) h
Structure (SMILES): CCC(C)(C)C(=O)O[C@H]1C[C@@H](C)C=C2C=C[C@H](C)[C@H](CC[C@@H](O)C[C@@H](O)CC(=O)O)[C@H]21 [Simvastatin acid, simvastatin acid]

AUC ([2]; human, plasma, oral, 360 mg): 3870 ng·h/mL
Cmax ([2]; human, plasma, oral, 360 mg): 262 ng/mL
Tmax ([2]; human, plasma, oral, 360 mg): 13 h
Structure (SMILES): COc1ccc([C@@H]2Sc3ccccc3N(CCN(C)C)C(=O)[C@@H]2OC(C)=O)cc1 [Diltiazem, diltiazem, reference compound]
first-degree atrioventricular block, subjects [3]: 42.9%
subjects with first-degree atrioventricular block who discontinued the trial ([3]; diltiazem extended-release 360 mg alone, on day 5): two of these subjects
adverse events reported (of thirteen in the study) ([3]; diltiazem extended-release 360 mg monotherapy): 12

AUC ([4]; human, plasma, 200 mg): 42300 ng·h/mL
Cmax ([4]; human, plasma, 200 mg): 7040 ng/mL
Tmax ([4]; human, plasma, 200 mg): 2 h
decrease of AUCτ by saxagliptin [4, 16]: 13%
decrease of Cmax by saxagliptin [4, 16]: 16%
Structure (SMILES): CC(=O)N1CCN(c2ccc(OCC3COC(Cn4ccnc4)(c4ccc(Cl)cc4Cl)O3)cc2)CC1 (stereo not drawn) [Ketoconazole, ketoconazole]
headache, subjects ([5]; ketoconazole alone treatment group, 10/16): 62.5%
subjects discontinued due to adverse event of increased transaminases ([5]; mild, beginning on day 8, lasting 11 days, following ketoconazole alone): One subject
